Data reported in ChEMBL document CHEMBL2396568, “An insight into synthetic Schiff bases revealing antiproliferative activities in vitro” (Bioorg Med Chem, 2013).
One block for each compound: values may come before it.

Key:
[1] = test system: Artemia salina; test: Toxicity in brine shrimp; assay type: functional; conditions: read-out: ED50 (the source's name)
[2] = test system: A549; test: Antiproliferative activity against human A549 cells after 48 hrs by MTT assay; assay type: functional, cell-based; conditions: A549, 48 h
[3] = test system: HeLa; test: Antiproliferative activity against human HeLa cells after 24 hrs by MTT assay; assay type: functional, cell-based
[4] = test system: A549; test: Antiproliferative activity against human A549 cells after 24 hrs by MTT assay; assay type: functional, cell-based; conditions: A549, 24 h
[5] = test system: HeLa; test: Antiproliferative activity against human HeLa cells after 48 hrs by MTT assay; assay type: functional, cell-based
[6] = test system: A2780; test: Antiproliferative activity against human A2780 cells after 72 hrs by MTT assay; assay type: functional, cell-based; conditions: A2780, 72 h
[7] = test system: PC-3; test: Antiproliferative activity against human PC3 cells after 24 hrs by MTT assay; assay type: functional, cell-based; conditions: PC-3, 24 h
[8] = test system: A2780; test: Antiproliferative activity against cisplatin-resistant human A2780 cells after 72 hrs by MTT assay; assay type: functional, cell-based; conditions: A2780, 72 h
[9] = test system: MCF7; test: Antiproliferative activity against human MCF7 cells after 24 hrs by MTT assay; assay type: functional, cell-based; conditions: MCF7, 24 h
[10] = Antiproliferative activity against human SW707 cells after 72 hrs by sulforhodamine B assay; assay type: functional; conditions: SW707, 72 h, read-out: ID50 (the source's name)
[11] = Antiproliferative activity against human HCV29T cells after 72 hrs by sulforhodamine B assay; assay type: functional; conditions: read-out: ID50 (the source's name)
[12] = test system: KB; test: Antiproliferative activity against wild-type human KB cells after 24 hrs by MTS assay; assay type: functional, cell-based
[13] = test system: KB; test: Antiproliferative activity against hydroxyurea-resistant human KB cells after 24 hrs by MTS assay; assay type: functional, cell-based
[14] = test system: L1210; test: Antiproliferative activity against mouse L1210 cells after 24 hrs by MTS assay; assay type: functional, cell-based; conditions: L1210, 24 h
[15] = test system: WIL2-NS; test: Antiproliferative activity against human WIL2-NS cells after 96 hrs by MTT assay; assay type: functional, cell-based
[16] = test system: MT4; test: Antiproliferative activity against human MT4 cells after 96 hrs by MTT assay; assay type: functional, cell-based; conditions: MT4, 96 h
[17] = test system: CCRF-SB; test: Antiproliferative activity against human CCRF-SB cells after 96 hrs by MTT assay; assay type: functional, cell-based
[18] = test system: CCRF-CEM; test: Antiproliferative activity against human CCRF-CEM cells after 96 hrs by MTT assay; assay type: functional, cell-based
[19] = Antiproliferative activity against human T-lymphoblastic leukemia cells by MTT assay; assay type: functional; conditions: Leukemia cell, read-out: CD50 (the source's name)
[20] = test system: KB; test: Antiproliferative activity against human KB cells after 72 hrs by neutral red uptake assay; assay type: functional, cell-based; conditions: kb
[21] = test system: MCF7; test: Antiproliferative activity against doxorubicin-resistant human MCF7 cells after 72 hrs by neutral red uptake assay; assay type: functional, cell-based; conditions: mcf7
[22] = test system: MCF7; test: Antiproliferative activity against wild-type human MCF7 cells after 72 hrs by neutral red uptake assay; assay type: functional, cell-based; conditions: mcf7
[23] = test system: K562; test: Antiproliferative activity against human K562 cells by MTT assay; assay type: functional, cell-based

Compound: CSCCC(/N=C1/c2c(O)cccc2Cc2cc(CO)cc(O)c21)C(=O)O (stereo not given)
- EC50 [1]: 836 µM

- IC50 [2]: 0.8 µM
- IC50 [3]: 1.3 µM
- IC50 [4]: 1.4 µM
- IC50 [5]: 0.5 µM
Compound: Clc1ccc(/C=N/c2ccccc2)c(Cl)c1

- IC50 [6]: 20 µM
- IC50 [7]: 32 µM
- IC50 [8]: 25 µM
- IC50 [9]: 34 µM
Compound: Oc1c(I)cc(I)cc1/C=N\CCn1cccn1

Compound: Clc1cccc(/C=N/c2nc3ccccc3[nH]2)c1
- IC50 [10]: 52.4 µM
- IC50 [11]: 75.5 µM

Compound: COc1cc(/C=N/c2nc3ccccc3[nH]2)cc(OC)c1OC
- IC50 [10]: 50.4 µM
- IC50 [11]: 52.4 µM

Compound: Clc1ccccc1/C=N/c1nc2ccccc2[nH]1
- IC50 [10]: 63.4 µM
- IC50 [11]: 31.7 µM

- IC50 [12]: 22.2 µM
- IC50 [13]: 21.2 µM
Compound: O=C(NO)N/N=C/c1cc(Cl)cc(Cl)c1O

Compound: CCC(C)C(/N=C1/c2c(O)cccc2C([C@@H]2O[C@H](CO)[C@@H](O)[C@H](O)[C@H]2O)c2cc(CO)cc(O)c21)C(=O)O (stereo not given in full)
- EC50 [1]: 35.2 µM

- IC50 [14]: 6.5 µM
- IC50 [12]: 9.3 µM
- IC50 [13]: 8.9 µM
Compound: Cc1c2ccccc2c(/C=N/NC(=O)NO)c2ccccc12

Compound: O=C(O)C/N=C1/c2c(O)cccc2C([C@@H]2O[C@H](CO)[C@@H](O)[C@H](O)[C@H]2O)c2cc(CO)cc(O)c21 (stereo not given in full)
- EC50 [1]: 408 µM

Compound: O=C(O)C(Cc1ccccc1)/N=C1/c2c(O)cccc2Cc2cc(CO)cc(O)c21 (stereo not given)
- EC50 [1]: 335 µM

- IC50 [2]: 88.4 µM
- IC50 [3]: 115 µM
- IC50 [4]: 144 µM
- IC50 [5]: 33 µM
Compound: Cc1ccc(/C=N/c2ccccc2)c(C)c1

Compound: O=[N+]([O-])c1ccc(/C=N/c2nc3ccccc3[nH]2)cc1
- IC50 [10]: 87.1 µM
- IC50 [11]: 88.3 µM

- IC50 [17]: 3 µM
- IC50 [18]: 1.5 µM
Compound: Cc1ccc2snc(/N=C\c3ccccc3Cl)c2c1
- IC50 [15]: 5 µM
- IC50 [16]: 3 µM

Compound: C(=N\Cc1ccco1)/c1c2ccccc2cc2ccccc12
- CC50 [19]: 67.8 µM

- IC50 [20]: 1 µM
- IC50 [21]: 0.4 µM
- IC50 [22]: 5 µM
Compound: CC/N=C/c1c(O)c(O)c(C(C)C)c2cc(C)c(-c3c(C)cc4c(C(C)C)c(O)c(O)c(/C=N/CC)c4c3O)c(O)c12 (stereo in doubt; (+/-)-74)

Compound: CC(C)CC(/N=C1/c2c(O)cccc2C([C@@H]2O[C@H](CO)[C@@H](O)[C@H](O)[C@H]2O)c2cc(CO)cc(O)c21)C(=O)O (stereo not given in full)
- EC50 [1]: 32 µM

- IC50 [20]: 0.3 µM
- IC50 [21]: 0.8 µM
- IC50 [22]: 0.2 µM
Compound: CC/N=C/c1c(O)c(O)c(C(C)C)c2cc(C)c(-c3c(C)cc4c(C(C)C)c(O)c(O)c(/C=N/CC)c4c3O)c(O)c12 (stereo in doubt; (-)-74)

- IC50 [23]: 37 µM
Compound: S=C(N/N=C(\c1ccccc1)c1ccccn1)SCc1ccccc1

Compound: O=C(O)C(Cc1ccccc1)/N=C1/c2c(O)cccc2C([C@@H]2O[C@H](CO)[C@@H](O)[C@H](O)[C@H]2O)c2cc(CO)cc(O)c21 (stereo not given in full)
- EC50 [1]: 312 µM

Compound: FC(F)(F)c1ccc(/C=N/c2nc3ccccc3[nH]2)cc1
- IC50 [11]: 200 µM

Compound: CC(C)CC(/N=C1/c2c(O)cccc2Cc2cc(CO)cc(O)c21)C(=O)O (stereo not given)
- EC50 [1]: 72.2 µM

- IC50 [20]: 1.6 µM
- IC50 [21]: 0.3 µM
- IC50 [22]: 1 µM
Compound: CC/N=C/c1c(O)c(O)c(C(C)C)c2cc(C)c(-c3c(C)cc4c(C(C)C)c(O)c(O)c(/C=N/CC)c4c3O)c(O)c12 (stereo in doubt; (+)-74)

- IC50 [17]: 4 µM
- IC50 [18]: 1.5 µM
Compound: COc1ccc(/C=N\c2nsc3ccc(C)cc23)cc1
- IC50 [15]: 6.5 µM
- IC50 [16]: 4 µM

Compound: CC(O)C(/N=C1/c2c(O)cccc2Cc2cc(CO)cc(O)c21)C(=O)O (stereo not given)
- EC50 [1]: 339 µM

Compound: Cc1cc(O)c2c(c1)C([C@@H]1O[C@H](CO)[C@@H](O)[C@H](O)[C@H]1O)c1cccc(O)c1/C2=N/C(CS)C(=O)O (stereo not given in full)
- EC50 [1]: 10.2 µM

Compound: CSCCC(/N=C1/c2c(O)cccc2C([C@@H]2O[C@H](CO)[C@@H](O)[C@H](O)[C@H]2O)c2cc(CO)cc(O)c21)C(=O)O (stereo not given in full)
- EC50 [1]: 404 µM
